{"source": "patent US20240066043A1", "about": "“PHARMACEUTICAL CO[…] IMPROVED DISSOLUTION AND RAPID ONSET BY TARGETED STOMACH AND MUCOSAL RELEASE” (Xpira Pharmaceuticals Inc., priority 2022, published 2024)", "key": {"[1]": {"details": "cited from earlier work"}, "[2]": {"details": "cited from earlier work", "remark": "listed apart in the source"}, "[3]": {"biological_target": "T1, neocortical serotonin 5-HT2A receptors (Homo sapiens, UniProt P28223)", "T1 construct": "host or cells: neocortex in vivo", "T1 sequence (P28223 whole entry)": "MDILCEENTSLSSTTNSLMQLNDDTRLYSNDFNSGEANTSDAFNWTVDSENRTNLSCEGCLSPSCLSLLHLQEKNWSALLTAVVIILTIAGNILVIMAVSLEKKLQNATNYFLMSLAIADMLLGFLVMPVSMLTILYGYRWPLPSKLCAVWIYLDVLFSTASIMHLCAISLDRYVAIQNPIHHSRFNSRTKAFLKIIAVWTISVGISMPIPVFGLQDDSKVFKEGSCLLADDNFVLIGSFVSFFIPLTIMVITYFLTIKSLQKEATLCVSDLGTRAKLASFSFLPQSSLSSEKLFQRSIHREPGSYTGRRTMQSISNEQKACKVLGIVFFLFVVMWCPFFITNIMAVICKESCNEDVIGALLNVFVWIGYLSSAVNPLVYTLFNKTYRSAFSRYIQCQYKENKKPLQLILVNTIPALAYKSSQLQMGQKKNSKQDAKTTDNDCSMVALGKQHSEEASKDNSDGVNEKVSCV", "details": "25 mg oral dose (Madsen et al., 2019); cited from earlier work"}, "[4]": {"details": "cited from earlier work", "remark": "listed apart in the source"}, "[5]": {"assay": "Flowability measurements (bulk density, tapped density, Hausner ratio, compressibility index)"}, "[6]": {"details": "cited from earlier work", "remark": "listed apart in the source"}, "[7]": {"assay": "Particle size analysis from SEM micrographs (circle equivalent diameter)", "type": "physicochemical", "details": "SEM micrograph FIG. 4B, unformulated psilocybin"}, "[8]": {"details": "oral 0.224 mg/kg psilocybin (10 to 20 mg) (Hasler et al., 1997)"}, "[9]": {"details": "oral psilocybin (Brown et al., 2017)"}}, "note": "Read-outs that look alike come from different tables or passages of the source.", "data": [{"smiles": "CN(C)CCc1c[nH]c2cccc(O)c12", "note": "[psilocin]", "values": [{"measurement": "time until psilocin detectable in plasma", "setting": "[1]; after administration of the parent compound psilocybin", "value": "≤ 20", "unit": "min"}, {"measurement": "time until psilocin appears in plasma", "setting": "[1]; after oral administration", "value": "≤ 15", "unit": "min"}, {"measurement": "psilocin half-life", "setting": "[1]; following oral administration of psilocybin (Brown et al., 2017)", "value": "approximately 3±1.1 hours"}, {"measurement": "half-life of psilocin in blood", "setting": "[1]; in vivo", "value": "2 to 3", "unit": "h"}, {"measurement": "average blood concentration of the active metabolite psilocin", "setting": "[1]; [8]", "value": "8.2 ± 2.8", "unit": "ng/mL"}, {"measurement": "time of average blood concentration of psilocin", "setting": "[1]; [8]", "value": "105 ± 37", "unit": "min"}, {"measurement": "time of peak psilocin levels", "setting": "[1]; [9]", "value": "approximately 80 minutes"}, {"measurement": "time psilocin is detectable after administration", "setting": "[1]; [9]", "value": "up to 24 hours"}, {"measurement": "share of overall clearance of psilocin through renal excretion", "setting": "[1]; urine over 24 hours after a single dose (Hasler et al., 2002)", "value": "less than 4%"}, {"measurement": "time to maximum plasma levels", "setting": "[2]; oral, rats (Chen et al., 2011)", "value": "approximately 90 minutes"}, {"measurement": "total volume of psilocin absorbed from the digestive tract", "setting": "[2]; psilocybin administered orally to rats (Kalberer et al., 1962)", "value": "approximately 50%"}]}, {"smiles": "CN(C)CCc1c[nH]c2cccc(OP(=O)(O)O)c12", "note": "[Psilocybin, 3[2-(dimethylamino)ethyl]-1H-indol-4-yl] dihydrogen phosphate]", "values": [{"measurement": "occupancy of neocortical serotonin 5-HT2A receptors", "setting": "[3]", "value": "near-maximal occupancy"}, {"measurement": "pharmacokinetics of psilocybin (as psilocin), dose linearity", "setting": "[1]; dose range 0.3-0.6 mg/kg (Brown et al., 2017; Hasler et al., 2002)", "value": "linear"}, {"measurement": "estimated dose-normalized bioavailability of psilocybin", "setting": "[1]; oral 0.224 mg/kg psilocybin, N=3 (Hasler et al., 1997)", "value": "52.7±20", "unit": "%"}, {"measurement": "bioavailability", "setting": "[1]; oral psilocybin", "value": "~50", "unit": "%"}, {"measurement": "solubility", "setting": "[4]; boiling methanol", "value": 120, "unit": "parts"}, {"measurement": "solubility", "setting": "[4]; boiling water", "value": 20, "unit": "parts"}, {"measurement": "stability", "setting": "[4]; dark storage at controlled room temperature", "value": "stable over extended periods"}, {"measurement": "Bulk density", "setting": "[5]; USP41-NF36 616", "value": 0.19, "unit": "g/mL"}, {"measurement": "Tapped density", "setting": "[5]; USP41-NF36 616", "value": 0.45, "unit": "g/mL"}, {"measurement": "Compressibility index", "setting": "[5]; USP41-NF36 1174", "value": 58, "unit": "%"}, {"measurement": "Hausner ratio", "setting": "[5]; tap density divided by bulk density, USP41-NF36 1174", "value": 2.36}, {"measurement": "peak of psychoactive effects", "setting": "[6]; after a dose", "value": "about two hours"}, {"measurement": "onset of noticeable psychoactive effects", "setting": "[6]; after an oral dose", "value": "within one hour"}, {"measurement": "loss of psychoactive effects", "setting": "[6]; after the dose", "value": "around six hours"}, {"measurement": "crystal size", "setting": "[7]", "value": "≤ 30", "unit": "μm"}]}]}
